Reference: patent EP0306971A2, “Use of milk fat globules as carriers for drugs and as microflotation devices in immunoassays and cell/molecular fractionation” (Bankert, Richard B., priority 1987, dated 1989)

Experiment: incorporation of adriamycin into MFG, by difference, spectrofluorometric determination
Format: physicochemical
Conditions: 0.9 ml packed MFG with 0.1 ml adriamycin 1 mg/ml in PBS, overnight at room temperature
Experimental: The milk fat globules to be loaded with drug are obtained from raw bovine milk by centrifugation at 1,500 x g for 10 min at room temperature followed by removal of the underlying (sub-natant) aqueous material. The MFG is washed three times by the addition of phosphate buffered saline, pH 7.4 (PBS) to the original volume followed by centrifugation at 1500 x g for 10 min and removal of the sub-natant fluid. Adriamycin is rapidly and stably loaded into the MFG very efficiently by incubating 0.9 ml packed MFG with 0.1 ml adriamycin, dissolved in PBS to a concentration of 1 mg/ml, overnight at room temperature. The resultant MFG is then transferred to a 10 ml syringe fitted with a stopcock, brought to 10 ml with PBS and centrifuged at 1500 x g for 10 min. The sub-natant fluid is removed by opening the stopcock and the milk fat globule layer is washed three times by gentle suspension in PBS followed by centrifugation. […] The presence of adriamycin is detected in the MFG by its fluorescence emission at 590 nm using fluorescence microscopy. Alternatively, the amount of incorporated adriamycin can be calculated by difference, after determination of the amount of adriamycin remaining in the first sub-natant fraction by spectrofluorometric determination using an excitation wavelength of 470 nm and an emission wavelength of 590 nm. […]

SMILES: COc1cccc2c1C(=O)c1c(O)c3c(c(O)c1C2=O)C[C@@](O)(C(=O)CO)C[C@@H]3O[C@H]1C[C@H](N)[C@H](O)[C@H](C)O1 [adriamycin]
- added drug incorporated into the MFG: up to 80%
